Measurements from PMC5540273, “Progress towards a public chemogenomic set for protein kinases and a call for contributions” (PLoS ONE, 2017).

Experiments:
Assay in all cases: KINOMEscan competition binding
AXL = biological target: T1, AXL (Homo sapiens, UniProt P30530); details: read-out: %Inh AXL
T1 sequence (P30530 26-894): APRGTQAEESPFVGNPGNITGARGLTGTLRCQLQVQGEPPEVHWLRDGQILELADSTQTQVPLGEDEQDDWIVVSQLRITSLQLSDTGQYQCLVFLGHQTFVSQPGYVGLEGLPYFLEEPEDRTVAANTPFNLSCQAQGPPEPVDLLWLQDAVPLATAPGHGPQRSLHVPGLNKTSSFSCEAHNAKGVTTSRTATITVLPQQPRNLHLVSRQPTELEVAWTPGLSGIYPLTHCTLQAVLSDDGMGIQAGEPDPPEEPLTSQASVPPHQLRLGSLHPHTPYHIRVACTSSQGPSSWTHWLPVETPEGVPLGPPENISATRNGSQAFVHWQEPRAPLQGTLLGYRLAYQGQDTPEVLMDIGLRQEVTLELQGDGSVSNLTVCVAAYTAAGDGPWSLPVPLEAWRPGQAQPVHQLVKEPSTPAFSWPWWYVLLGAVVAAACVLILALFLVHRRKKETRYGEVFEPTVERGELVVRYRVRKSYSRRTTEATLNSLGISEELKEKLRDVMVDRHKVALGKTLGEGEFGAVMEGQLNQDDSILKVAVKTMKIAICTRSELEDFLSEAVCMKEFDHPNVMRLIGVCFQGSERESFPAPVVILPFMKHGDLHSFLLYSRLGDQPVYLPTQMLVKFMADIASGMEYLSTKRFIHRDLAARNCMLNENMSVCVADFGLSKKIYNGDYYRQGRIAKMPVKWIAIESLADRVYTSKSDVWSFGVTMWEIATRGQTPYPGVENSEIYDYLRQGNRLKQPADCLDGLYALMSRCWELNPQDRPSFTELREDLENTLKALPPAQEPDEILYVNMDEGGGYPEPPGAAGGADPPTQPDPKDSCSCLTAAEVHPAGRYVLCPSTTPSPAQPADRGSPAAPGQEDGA

HIPK1 = HIPK1 (Homo sapiens, UniProt Q86Z02); details: read-out: %Inh HIPK1
HIPK1, sequence (Q86Z02 whole entry): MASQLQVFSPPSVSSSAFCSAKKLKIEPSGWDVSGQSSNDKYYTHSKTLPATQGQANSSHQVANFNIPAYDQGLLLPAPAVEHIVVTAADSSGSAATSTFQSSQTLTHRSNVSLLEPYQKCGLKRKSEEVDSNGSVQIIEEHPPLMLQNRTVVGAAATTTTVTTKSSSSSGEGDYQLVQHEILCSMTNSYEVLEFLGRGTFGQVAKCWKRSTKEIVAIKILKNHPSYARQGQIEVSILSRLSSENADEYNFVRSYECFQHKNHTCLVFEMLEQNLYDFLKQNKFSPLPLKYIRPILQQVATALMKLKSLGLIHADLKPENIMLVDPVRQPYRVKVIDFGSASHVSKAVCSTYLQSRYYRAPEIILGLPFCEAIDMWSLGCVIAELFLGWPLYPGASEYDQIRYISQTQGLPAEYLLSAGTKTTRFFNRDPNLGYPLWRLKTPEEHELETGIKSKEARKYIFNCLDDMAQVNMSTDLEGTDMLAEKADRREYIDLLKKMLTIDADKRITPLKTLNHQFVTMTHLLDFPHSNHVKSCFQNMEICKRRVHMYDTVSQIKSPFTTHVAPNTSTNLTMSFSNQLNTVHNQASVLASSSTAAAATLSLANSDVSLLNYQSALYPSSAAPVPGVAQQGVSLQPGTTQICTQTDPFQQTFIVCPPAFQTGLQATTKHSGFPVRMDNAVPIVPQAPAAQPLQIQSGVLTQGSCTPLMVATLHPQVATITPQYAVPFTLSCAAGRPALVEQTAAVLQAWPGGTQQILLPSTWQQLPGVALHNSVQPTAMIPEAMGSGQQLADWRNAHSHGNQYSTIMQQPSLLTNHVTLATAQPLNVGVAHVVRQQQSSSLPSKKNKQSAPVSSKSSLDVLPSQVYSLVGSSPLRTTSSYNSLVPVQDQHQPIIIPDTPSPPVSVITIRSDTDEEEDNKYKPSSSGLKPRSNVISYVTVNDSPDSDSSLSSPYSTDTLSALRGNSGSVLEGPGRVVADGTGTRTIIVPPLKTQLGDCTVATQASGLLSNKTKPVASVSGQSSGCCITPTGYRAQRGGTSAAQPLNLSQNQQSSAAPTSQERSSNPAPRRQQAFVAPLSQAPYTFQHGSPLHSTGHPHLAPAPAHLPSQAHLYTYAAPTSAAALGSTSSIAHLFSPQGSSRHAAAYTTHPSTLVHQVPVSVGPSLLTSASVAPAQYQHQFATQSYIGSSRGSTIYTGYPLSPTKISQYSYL

EPHA6 = biological target: T2, EPHA6 (Homo sapiens, UniProt Q9UF33); details: read-out: %Inh EPHA6
T2 sequence (Q9UF33 23-1036): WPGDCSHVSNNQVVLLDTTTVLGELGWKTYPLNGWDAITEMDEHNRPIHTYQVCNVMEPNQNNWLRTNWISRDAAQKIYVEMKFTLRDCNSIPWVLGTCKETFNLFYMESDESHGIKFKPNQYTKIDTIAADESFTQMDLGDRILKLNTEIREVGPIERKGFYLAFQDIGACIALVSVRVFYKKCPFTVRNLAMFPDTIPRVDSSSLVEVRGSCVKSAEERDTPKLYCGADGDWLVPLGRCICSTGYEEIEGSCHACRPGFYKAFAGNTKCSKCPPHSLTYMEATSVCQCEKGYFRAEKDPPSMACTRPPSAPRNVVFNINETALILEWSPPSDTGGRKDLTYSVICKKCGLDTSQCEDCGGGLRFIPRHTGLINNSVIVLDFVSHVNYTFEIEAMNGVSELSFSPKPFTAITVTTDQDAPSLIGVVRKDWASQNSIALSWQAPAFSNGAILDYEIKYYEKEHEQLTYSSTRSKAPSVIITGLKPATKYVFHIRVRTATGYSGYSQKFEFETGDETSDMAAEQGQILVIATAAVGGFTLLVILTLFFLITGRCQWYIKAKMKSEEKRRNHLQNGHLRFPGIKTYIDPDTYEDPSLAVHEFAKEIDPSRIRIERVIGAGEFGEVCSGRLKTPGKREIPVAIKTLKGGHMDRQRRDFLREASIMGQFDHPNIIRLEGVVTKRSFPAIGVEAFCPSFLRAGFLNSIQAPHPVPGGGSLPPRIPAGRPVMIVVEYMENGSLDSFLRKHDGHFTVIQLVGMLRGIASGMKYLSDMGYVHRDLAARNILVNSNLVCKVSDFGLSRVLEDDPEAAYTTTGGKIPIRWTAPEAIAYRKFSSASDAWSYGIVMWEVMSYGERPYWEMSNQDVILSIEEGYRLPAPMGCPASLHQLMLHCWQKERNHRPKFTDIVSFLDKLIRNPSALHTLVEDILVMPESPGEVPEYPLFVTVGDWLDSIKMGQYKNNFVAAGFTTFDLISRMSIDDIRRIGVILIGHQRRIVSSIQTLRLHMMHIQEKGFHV

MAK = biological target: T3, MAK (Homo sapiens, UniProt P20794); details: read-out: %Inh MAK
T3 sequence (P20794 1-623): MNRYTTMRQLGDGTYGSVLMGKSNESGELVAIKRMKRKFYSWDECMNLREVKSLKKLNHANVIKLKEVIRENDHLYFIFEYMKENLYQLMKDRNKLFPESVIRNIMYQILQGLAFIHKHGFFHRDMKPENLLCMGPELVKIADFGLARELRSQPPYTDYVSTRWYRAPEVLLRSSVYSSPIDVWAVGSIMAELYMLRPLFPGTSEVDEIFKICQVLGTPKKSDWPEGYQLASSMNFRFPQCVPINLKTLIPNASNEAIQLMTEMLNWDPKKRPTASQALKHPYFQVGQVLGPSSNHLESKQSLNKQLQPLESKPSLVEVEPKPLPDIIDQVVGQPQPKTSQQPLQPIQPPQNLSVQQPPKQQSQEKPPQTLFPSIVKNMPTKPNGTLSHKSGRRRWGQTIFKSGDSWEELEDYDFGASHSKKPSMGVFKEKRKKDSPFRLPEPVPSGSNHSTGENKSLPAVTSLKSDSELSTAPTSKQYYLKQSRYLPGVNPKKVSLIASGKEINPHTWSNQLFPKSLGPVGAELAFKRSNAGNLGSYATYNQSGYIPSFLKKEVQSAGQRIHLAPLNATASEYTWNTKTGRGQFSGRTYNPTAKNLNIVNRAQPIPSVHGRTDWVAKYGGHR

BUB1 = BUB1 (Homo sapiens, UniProt O43683); details: read-out: %Inh BUB1
BUB1, sequence (O43683 whole entry): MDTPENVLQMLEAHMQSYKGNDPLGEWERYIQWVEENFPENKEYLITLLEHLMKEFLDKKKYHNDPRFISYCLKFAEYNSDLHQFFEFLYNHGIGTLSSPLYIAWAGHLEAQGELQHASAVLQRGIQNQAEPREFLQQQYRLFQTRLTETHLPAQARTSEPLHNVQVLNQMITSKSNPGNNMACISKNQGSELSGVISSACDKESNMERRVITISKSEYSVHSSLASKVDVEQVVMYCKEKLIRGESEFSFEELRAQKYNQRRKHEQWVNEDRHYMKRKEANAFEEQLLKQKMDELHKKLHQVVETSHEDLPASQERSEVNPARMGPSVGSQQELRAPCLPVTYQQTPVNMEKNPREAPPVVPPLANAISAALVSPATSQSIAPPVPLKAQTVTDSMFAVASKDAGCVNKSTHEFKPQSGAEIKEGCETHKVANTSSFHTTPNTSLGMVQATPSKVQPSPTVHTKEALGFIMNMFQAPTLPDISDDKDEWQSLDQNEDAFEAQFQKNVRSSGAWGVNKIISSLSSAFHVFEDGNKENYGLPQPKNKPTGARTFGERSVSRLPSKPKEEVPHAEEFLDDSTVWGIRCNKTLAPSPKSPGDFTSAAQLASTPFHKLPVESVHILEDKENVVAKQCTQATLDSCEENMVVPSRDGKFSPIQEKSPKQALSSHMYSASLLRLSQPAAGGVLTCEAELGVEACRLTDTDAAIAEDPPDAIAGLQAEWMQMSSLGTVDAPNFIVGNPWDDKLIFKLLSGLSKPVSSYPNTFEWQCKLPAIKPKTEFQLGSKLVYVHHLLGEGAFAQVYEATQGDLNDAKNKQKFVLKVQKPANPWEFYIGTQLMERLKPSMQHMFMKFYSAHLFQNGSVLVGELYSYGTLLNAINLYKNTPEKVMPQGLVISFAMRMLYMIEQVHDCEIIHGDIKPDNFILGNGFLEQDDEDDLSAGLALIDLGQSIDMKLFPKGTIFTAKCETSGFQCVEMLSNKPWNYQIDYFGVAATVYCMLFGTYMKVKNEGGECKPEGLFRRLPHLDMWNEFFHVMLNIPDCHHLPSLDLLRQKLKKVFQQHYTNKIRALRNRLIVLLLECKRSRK

BLK = BLK (Homo sapiens, UniProt P51451); details: read-out: %Inh BLK
BLK, sequence (P51451 whole entry): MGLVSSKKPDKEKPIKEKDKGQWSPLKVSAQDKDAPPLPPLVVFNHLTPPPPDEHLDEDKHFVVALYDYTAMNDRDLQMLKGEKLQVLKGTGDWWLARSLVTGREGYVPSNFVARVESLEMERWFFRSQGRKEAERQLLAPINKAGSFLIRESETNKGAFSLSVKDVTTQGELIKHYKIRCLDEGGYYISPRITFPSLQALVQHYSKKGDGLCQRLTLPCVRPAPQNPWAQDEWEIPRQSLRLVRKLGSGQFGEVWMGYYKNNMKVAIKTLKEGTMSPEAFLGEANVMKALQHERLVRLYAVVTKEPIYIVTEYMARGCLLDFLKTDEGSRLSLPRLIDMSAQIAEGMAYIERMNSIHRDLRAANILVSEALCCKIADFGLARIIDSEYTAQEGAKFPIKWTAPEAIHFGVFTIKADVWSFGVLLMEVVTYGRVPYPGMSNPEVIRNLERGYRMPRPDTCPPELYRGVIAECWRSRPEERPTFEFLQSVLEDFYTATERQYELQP

CDK2 = CDK2 (Homo sapiens, UniProt P24941); details: read-out: %Inh CDK2
INSRR = INSRR (Homo sapiens, UniProt P14616); details: read-out: %Inh INSRR
INSRR, sequence (P14616 27-1297): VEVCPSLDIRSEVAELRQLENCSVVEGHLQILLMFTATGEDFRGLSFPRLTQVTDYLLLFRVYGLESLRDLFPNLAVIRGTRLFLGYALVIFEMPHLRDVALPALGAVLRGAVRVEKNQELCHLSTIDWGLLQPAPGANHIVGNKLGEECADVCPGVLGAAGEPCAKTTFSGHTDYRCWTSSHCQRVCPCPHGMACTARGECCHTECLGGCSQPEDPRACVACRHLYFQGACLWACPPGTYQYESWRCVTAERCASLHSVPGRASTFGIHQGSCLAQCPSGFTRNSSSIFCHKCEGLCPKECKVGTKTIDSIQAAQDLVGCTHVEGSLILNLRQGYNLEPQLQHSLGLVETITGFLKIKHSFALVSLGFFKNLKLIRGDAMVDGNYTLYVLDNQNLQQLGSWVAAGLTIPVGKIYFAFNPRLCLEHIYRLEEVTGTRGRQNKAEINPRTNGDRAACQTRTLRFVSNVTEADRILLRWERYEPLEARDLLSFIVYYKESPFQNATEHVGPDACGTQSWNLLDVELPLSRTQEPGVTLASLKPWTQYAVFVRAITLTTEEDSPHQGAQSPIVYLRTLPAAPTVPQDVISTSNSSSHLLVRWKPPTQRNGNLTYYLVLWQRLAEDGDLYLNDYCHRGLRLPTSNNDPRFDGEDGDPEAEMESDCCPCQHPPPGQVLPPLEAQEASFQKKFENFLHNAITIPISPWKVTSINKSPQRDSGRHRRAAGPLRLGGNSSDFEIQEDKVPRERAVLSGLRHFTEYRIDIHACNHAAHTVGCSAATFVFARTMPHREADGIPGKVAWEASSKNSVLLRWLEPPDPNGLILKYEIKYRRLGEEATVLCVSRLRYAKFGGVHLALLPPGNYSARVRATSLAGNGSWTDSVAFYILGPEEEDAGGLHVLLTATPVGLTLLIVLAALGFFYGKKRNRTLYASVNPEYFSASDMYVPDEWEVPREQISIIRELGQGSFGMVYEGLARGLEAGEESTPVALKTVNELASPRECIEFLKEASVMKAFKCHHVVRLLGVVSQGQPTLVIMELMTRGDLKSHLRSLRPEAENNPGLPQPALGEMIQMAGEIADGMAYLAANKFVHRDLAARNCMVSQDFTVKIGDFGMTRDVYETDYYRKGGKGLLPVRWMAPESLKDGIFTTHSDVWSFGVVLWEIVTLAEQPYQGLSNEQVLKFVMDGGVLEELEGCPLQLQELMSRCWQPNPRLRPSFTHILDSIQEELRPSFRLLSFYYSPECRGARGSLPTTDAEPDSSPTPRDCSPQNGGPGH

## Cn1cc(-c2cnc(N)c3c(-c4ccc5c(c4)CCN5C(=O)Cc4ccccc4)csc23)cn1 [UNC10225012A]
AXL
  inhibition at 1 µM: 95.9%
HIPK1
  inhibition at 1 µM: 21%
EPHA6
  inhibition at 1 µM: 11%
MAK
  inhibition at 1 µM: 0%
BUB1
  inhibition at 1 µM: 0%
BLK
  inhibition at 1 µM: 93%
CDK2
  inhibition at 1 µM: 0%
INSRR
  inhibition at 1 µM: 13%

## O=c1cc(N2CCOCC2)nc2n(Cc3cccc(Cl)c3Cl)c(C3CC3)nn12 [UNC10225469A]
AXL
  inhibition at 1 µM: 3%
HIPK1
  inhibition at 1 µM: 16%
EPHA6
  inhibition at 1 µM: 0%
MAK
  inhibition at 1 µM: 0%
BUB1
  inhibition at 1 µM: 0%
BLK
  inhibition at 1 µM: 0%
CDK2
  inhibition at 1 µM: 0%
INSRR
  inhibition at 1 µM: 0%

## COc1cccc(OC)c1C(=O)Nc1cccc(-c2nn3ccccc3c2-c2ccnc(Nc3cccc(F)c3)n2)c1 [UNC10225310A]
AXL
  inhibition at 1 µM: 30%
HIPK1
  inhibition at 1 µM: 31%
EPHA6
  inhibition at 1 µM: 11%
MAK
  inhibition at 1 µM: 14%
BUB1
  inhibition at 1 µM: 11%
BLK
  inhibition at 1 µM: 41%
CDK2
  inhibition at 1 µM: 0%
INSRR
  inhibition at 1 µM: 0%

## CS(=O)(=O)Cc1ccc(Nc2nccc(-c3c(-c4cccc(NC(=O)C5CCCCC5)c4)nn4ncccc34)n2)cc1 [UNC10225159A]
AXL
  inhibition at 1 µM: 18%
HIPK1
  inhibition at 1 µM: 5%
EPHA6
  inhibition at 1 µM: 2%
MAK
  inhibition at 1 µM: 0%
BUB1
  inhibition at 1 µM: 98.7%
BLK
  inhibition at 1 µM: 0%
CDK2
  inhibition at 1 µM: 0%
INSRR
  inhibition at 1 µM: 20%

## Cc1ccc(NC(=O)Nc2cccc(C(F)(F)F)c2)cc1 [UNC10225187A]
AXL
  inhibition at 1 µM: 0%
HIPK1
  inhibition at 1 µM: 8%
EPHA6
  inhibition at 1 µM: 0%
MAK
  inhibition at 1 µM: 0%
BUB1
  inhibition at 1 µM: 0%
BLK
  inhibition at 1 µM: 0%
CDK2
  inhibition at 1 µM: 0%
INSRR
  inhibition at 1 µM: 0%
